Results on 30 molecules are retold here after patent publication US9771369B2, “Compounds and methods for kinase modulation, and indications therefor” (Plexxikon Inc., priority 2014, dated 2017).

In the assay the target is c-Kit kinase (Homo sapiens (Human), UniProt P10721). Description: c-Kit biochemical assay (AlphaScreen kinase activity). The method in brief:
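IC50 values come from 8-point, 1:3 compound titrations measuring inhibition of peptide phosphorylation by c-Kit (commercial or His-tagged E. coli-expressed) over 1 h at room temperature, read by AlphaScreen PY30/streptavidin beads. Low-ATP version: 10 μM ATP, 100 nM biotin-(E4Y)3; high-ATP version: 100 μM ATP, 30 nM biotin-(E4Y)10.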
A general note: Bead proximity is the source of the signal in Alpha formats.

Each structure is given as a SMILES string.

Sequence of c-Kit kinase (P10721 26-976): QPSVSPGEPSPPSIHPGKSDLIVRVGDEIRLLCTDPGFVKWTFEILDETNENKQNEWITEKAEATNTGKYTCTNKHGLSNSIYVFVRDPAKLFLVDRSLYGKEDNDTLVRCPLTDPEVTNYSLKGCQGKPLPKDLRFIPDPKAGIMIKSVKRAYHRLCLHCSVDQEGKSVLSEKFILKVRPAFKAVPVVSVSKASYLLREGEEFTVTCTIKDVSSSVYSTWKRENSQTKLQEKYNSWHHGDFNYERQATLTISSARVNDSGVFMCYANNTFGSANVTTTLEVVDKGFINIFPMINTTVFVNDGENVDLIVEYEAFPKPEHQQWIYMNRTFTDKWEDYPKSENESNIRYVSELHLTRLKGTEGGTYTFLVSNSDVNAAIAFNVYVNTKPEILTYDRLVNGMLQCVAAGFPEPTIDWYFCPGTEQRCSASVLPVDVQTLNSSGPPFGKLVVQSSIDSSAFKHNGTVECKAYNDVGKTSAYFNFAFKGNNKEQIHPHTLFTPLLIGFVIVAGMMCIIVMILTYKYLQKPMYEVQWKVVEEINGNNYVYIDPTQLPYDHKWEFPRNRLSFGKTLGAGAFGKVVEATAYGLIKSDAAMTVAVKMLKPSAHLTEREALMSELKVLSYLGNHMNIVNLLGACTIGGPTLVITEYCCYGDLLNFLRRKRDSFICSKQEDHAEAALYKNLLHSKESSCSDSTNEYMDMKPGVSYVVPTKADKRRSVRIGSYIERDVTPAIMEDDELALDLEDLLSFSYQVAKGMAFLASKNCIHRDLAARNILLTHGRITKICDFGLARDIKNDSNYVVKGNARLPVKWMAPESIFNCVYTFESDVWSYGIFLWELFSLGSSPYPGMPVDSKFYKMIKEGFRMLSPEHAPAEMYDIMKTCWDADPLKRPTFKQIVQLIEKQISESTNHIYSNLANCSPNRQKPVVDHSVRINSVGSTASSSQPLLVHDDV

On to `COc1ncc(-c2cc3c(N4CCC(c5nc(C)c(-c6ccccc6)[nH]5)CC4)ncnc3[nH]2)cn1` [P-3045, 6-(2-methoxypyrimidin-5-yl)-4-[4-(4-methyl-5-phenyl-1H-imidazol-2-yl)-1-piperidyl]-7H-pyrrolo[2,3-d]pyrimidine], for which the IC50 (commonly the concentration at which inhibition is half-maximal) fell in the range of 10 to 300 µM.
`Cc1nc(C2CCN(c3ncnc4[nH]c(-c5cnn(C)c5)cc34)CC2)[nH]c1-c1ccccc1` [P-3046, 4-[4-(4-methyl-5-phenyl-1H-imidazol-2-yl)-1-piperidyl]-6-(1-methylpyrazol-4-yl)-7H-pyrrolo[2,3-d]pyrimidine]: the concentration for half-maximal inhibition (IC50) lay in the range of 0.0001 to 1 µM.
On to `Cc1nc(C2CCN(c3ncnc4[nH]c(-c5ccc(C#N)cc5)cc34)CC2)[nH]c1-c1ccccc1` [P-3047, 4-[4-[4-(4-methyl-5-phenyl-1H-imidazol-2-yl)-1-piperidyl]-7H-pyrrolo[2,3-d]pyrimidin-6-yl]benzonitrile], for which the IC50 was in the range of 1 to 10 µM.
On to `Cc1nc(C2CCN(c3ncnc4[nH]c(-c5ccc(S(N)(=O)=O)cc5)cc34)CC2)[nH]c1-c1ccccc1` [P-3048, 4-[4-[4-(4-methyl-5-phenyl-1H-imidazol-2-yl)-1-piperidyl]-7H-pyrrolo[2,3-d]pyrimidin-6-yl]benzenesulfonamide], for which the IC50 was 1 to 10 µM.
Turning to `CNC(=O)c1cccc(-c2cc3c(N4CCC(c5nc(C)c(-c6ccccc6)[nH]5)CC4)ncnc3[nH]2)c1` [P-3049, N-methyl-3-[4-[4-(4-methyl-5-phenyl-1H-imidazol-2-yl)-1-piperidyl]-7H-pyrrolo[2,3-d]pyrimidin-6-yl]benzamide], the 50% inhibitory concentration (IC50) is 1 to 10 µM.
Molecule `Cc1nc(C2CCN(c3ncnc4[nH]c(-c5cnn(C(F)F)c5)cc34)CC2)[nH]c1-c1ccccc1` [P-3050, 6-[1-(difluoromethyl)pyrazol-4-yl]-4-[4-(4-methyl-5-phenyl-1H-imidazol-2-yl)-1-piperidyl]-7H-pyrrolo[2,3-d]pyrimidine] displayed an IC50 of 0.0001 to 1 µM.
The figure for `Cc1nc(C2CCN(c3ncnc4[nH]c(-c5cccc(S(N)(=O)=O)c5)cc34)CC2)[nH]c1-c1ccccc1` [P-3051, 3-[4-[4-(4-methyl-5-phenyl-1H-imidazol-2-yl)-1-piperidyl]-7H-pyrrolo[2,3-d]pyrimidin-6-yl]benzenesulfonamide] is 0.0001 to 1 µM.
The figure for `COc1ccc(-c2[nH]c(C3(C)CCN(c4ncnc5[nH]c(-c6ccc(F)cc6)cc45)CC3)nc2C)cc1C` [P-3052, 6-(4-fluorophenyl)-4-[4-[5-(4-methoxy-3-methyl-phenyl)-4-methyl-1H-imidazol-2-yl]-4-methyl-1-piperidyl]-7H-pyrrolo[2,3-d]pyrimidine] is 0.0001 to 1 µM; for `COc1ccc(-c2[nH]c(C3(C)CCN(c4ncnc5[nH]c(-c6ccc(C#N)cc6)cc45)CC3)nc2C)cc1C` [P-3053, 4-[4-[4-[5-(4-methoxy-3-methyl-phenyl)-4-methyl-1H-imidazol-2-yl]-4-methyl-1-piperidyl]-7H-pyrrolo[2,3-d]pyrimidin-6-yl]benzonitrile] it is 0.0001 to 1 µM; for `COc1cc(-c2cc3c(N4CCC(C)(c5nc(C)c(-c6ccc(OC)c(C)c6)[nH]5)CC4)ncnc3[nH]2)ccn1` [P-3054, 4-[4-[5-(4-methoxy-3-methyl-phenyl)-4-methyl-1H-imidazol-2-yl]-4-methyl-1-piperidyl]-6-(2-methoxy-4-pyridyl)-7H-pyrrolo[2,3-d]pyrimidine] it is 0.0001 to 1 µM.
For the molecule `CCC1(c2nc(C)c(-c3ccc(OC)cc3)[nH]2)CCN(c2ncnc3[nH]c(-c4ccc(F)cc4)cc23)CC1` [P-3055, 4-[4-ethyl-4-[5-(4-methoxyphenyl)-4-methyl-1H-imidazol-2-yl]-1-piperidyl]-6-(4-fluorophenyl)-7H-pyrrolo[2,3-d]pyrimidine], the IC50 was in the range of 0.0001 to 1 µM.
In turn, `CCC1(c2nc(C)c(-c3ccc(OC)c(C)c3)[nH]2)CCN(c2ncnc3[nH]c(-c4ccc(F)cc4)cc23)CC1` [P-3056, 4-[4-ethyl-4-[5-(4-methoxy-3-methyl-phenyl)-4-methyl-1H-imidazol-2-yl]-1-piperidyl]-6-(4-fluorophenyl)-7H-pyrrolo[2,3-d]pyrimidine] gave an IC50 of 0.0001 to 1 µM.
`Cc1nc(C2(C)CCN(c3ncnc4[nH]c(-c5ccc(F)cc5)cc34)CC2)[nH]c1-c1ccc(F)cc1` [P-3057, 6-(4-fluorophenyl)-4-[4-[5-(4-fluorophenyl)-4-methyl-1H-imidazol-2-yl]-4-methyl-1-piperidyl]-7H-pyrrolo[2,3-d]pyrimidine]: the IC50 lay in the range of 0.0001 to 1 µM.
`Cc1nc(C2(C)CCN(c3ncnc4[nH]c(-c5ccc(F)cc5)cc34)CC2)[nH]c1-c1ccc(Cl)cc1` [P-3058, 4-[4-[5-(4-chlorophenyl)-4-methyl-1H-imidazol-2-yl]-4-methyl-1-piperidyl]-6-(4-fluorophenyl)-7H-pyrrolo[2,3-d]pyrimidine]: the IC50 was 0.0001 to 1 µM.
In the case of `CCc1ccc(-c2[nH]c(C3CCN(c4ncnc5[nH]c(-c6ccnc(OC)c6)cc45)CC3)nc2C)cc1` [P-3059, 4-[4-[5-(4-ethylphenyl)-4-methyl-1H-imidazol-2-yl]-1-piperidyl]-6-(2-methoxy-4-pyridyl)-7H-pyrrolo[2,3-d]pyrimidine], the IC50 is 0.0001 to 1 µM.
`CCc1ccc(-c2[nH]c(C3CCN(c4ncnc5[nH]c(-c6ccc(F)cc6)cc45)CC3)nc2C)cc1` [P-3060, 4-[4-[5-(4-ethylphenyl)-4-methyl-1H-imidazol-2-yl]-1-piperidyl]-6-(4-fluorophenyl)-7H-pyrrolo[2,3-d]pyrimidine] displayed an IC50 of 0.0001 to 1 µM.
Turning to `CCc1ccc(-c2[nH]c(C3CCN(c4ncnc5[nH]c(-c6ccc(C#N)cc6)cc45)CC3)nc2C)cc1` [P-3061, 4-[4-[4-[5-(4-ethylphenyl)-4-methyl-1H-imidazol-2-yl]-1-piperidyl]-7H-pyrrolo[2,3-d]pyrimidin-6-yl]benzonitrile], the concentration for half-maximal inhibition (IC50) was in the range of 0.0001 to 1 µM.
Take `Cc1ccc(-c2[nH]c(C3CCN(c4ncnc5[nH]c(-c6ccc(F)cc6)cc45)CC3)nc2C)cc1` [P-3062, 6-(4-fluorophenyl)-4-[4-[4-methyl-5-(p-tolyl)-1H-imidazol-2-yl]-1-piperidyl]-7H-pyrrolo[2,3-d]pyrimidine]: the 50% inhibitory concentration (IC50) fell in the range of 0.0001 to 1 µM.
`COc1ccc(-c2[nH]c(C3(C)CCN(c4ncnc5[nH]c(C)cc45)CC3)nc2C)cc1` [P-3063, 4-[4-[5-(4-methoxyphenyl)-4-methyl-1H-imidazol-2-yl]-4-methyl-1-piperidyl]-6-methyl-7H-pyrrolo[2,3-d]pyrimidine] registered an IC50 of 1 to 10 µM.
`Cc1cc2c(N3CCC(C)(c4nc(C)c(-c5ccc(F)cc5)[nH]4)CC3)ncnc2[nH]1` [P-3064, 4-[4-[5-(4-fluorophenyl)-4-methyl-1H-imidazol-2-yl]-4-methyl-1-piperidyl]-6-methyl-7H-pyrrolo[2,3-d]pyrimidine] showed an IC50 of 1 to 10 µM.
In turn, `CCOc1ccc(-c2[nH]c(C3CCN(c4ncnc5[nH]c(-c6ccc(F)cc6)cc45)CC3)nc2C)cc1C` [P-3065, 4-[4-[5-(4-ethoxy-3-methyl-phenyl)-4-methyl-1H-imidazol-2-yl]-1-piperidyl]-6-(4-fluorophenyl)-7H-pyrrolo[2,3-d]pyrimidine] had a 50% inhibitory concentration (IC50) of 0.0001 to 1 µM.
The result for `CCOc1ccc(-c2[nH]c(C3CCN(c4ncnc5[nH]c(-c6ccc(C#N)cc6)cc45)CC3)nc2C)cc1C` [P-3066, 4-[4-[4-[5-(4-ethoxy-3-methyl-phenyl)-4-methyl-1H-imidazol-2-yl]-1-piperidyl]-7H-pyrrolo[2,3-d]pyrimidin-6-yl]benzonitrile] reads 0.0001 to 1 µM; that for `CCOc1ccc(-c2[nH]c(C3CCN(c4ncnc5[nH]c(-c6ccnc(OC)c6)cc45)CC3)nc2C)cc1C` [P-3067, 4-[4-[5-(4-ethoxy-3-methyl-phenyl)-4-methyl-1H-imidazol-2-yl]-1-piperidyl]-6-(2-methoxy-4-pyridyl)-7H-pyrrolo[2,3-d]pyrimidine], 0.0001 to 1 µM; that for `Cc1nc(C2CCN(c3ncnc4[nH]c(-c5ccc(F)cc5)cc34)CC2)[nH]c1-c1ccc2c(c1)OCO2` [P-3068, 4-[4-[5-(1,3-benzodioxol-5-yl)-4-methyl-1H-imidazol-2-yl]-1-piperidyl]-6-(4-fluorophenyl)-7H-pyrrolo[2,3-d]pyrimidine], 0.0001 to 1 µM.
The result for `Cc1nc(C2CCN(c3ncnc4[nH]c(-c5ccc(C#N)cc5)cc34)CC2)[nH]c1-c1ccc2c(c1)OCO2` [P-3069, 4-[4-[4-[5-(1,3-benzodioxol-5-yl)-4-methyl-1H-imidazol-2-yl]-1-piperidyl]-7H-pyrrolo[2,3-d]pyrimidin-6-yl]benzonitrile] reads 0.0001 to 1 µM.
In the case of `COc1cc(-c2cc3c(N4CCC(c5nc(C)c(-c6ccc7c(c6)OCO7)[nH]5)CC4)ncnc3[nH]2)ccn1` [P-3070, 4-[4-[5-(1,3-benzodioxol-5-yl)-4-methyl-1H-imidazol-2-yl]-1-piperidyl]-6-(2-methoxy-4-pyridyl)-7H-pyrrolo[2,3-d]pyrimidine], the IC50 is 0.0001 to 1 µM.
In the case of `CC(=O)Nc1cccc(-c2cc3c(N4CCC(c5nc(C)c(-c6ccccc6)[nH]5)CC4)ncnc3[nH]2)c1` [P-3071, N-[3-[4-[4-(4-methyl-5-phenyl-1H-imidazol-2-yl)-1-piperidyl]-7H-pyrrolo[2,3-d]pyrimidin-6-yl]phenyl]acetamide], the IC50 lay in the range of 0.0001 to 1 µM.
`COc1ccc(-c2cc3c(N4CCC(c5nc(C)c(-c6ccccc6)[nH]5)CC4)ncnc3[nH]2)cn1` [P-3072, 6-(6-methoxy-3-pyridyl)-4-[4-(4-methyl-5-phenyl-1H-imidazol-2-yl)-1-piperidyl]-7H-pyrrolo[2,3-d]pyrimidine] had an IC50 of 1 to 10 µM.
In turn, `Cc1nn(C)cc1-c1cc2c(N3CCC(c4nc(C)c(-c5ccccc5)[nH]4)CC3)ncnc2[nH]1` [P-3073, 6-(1,3-dimethylpyrazol-4-yl)-4-[4-(4-methyl-5-phenyl-1H-imidazol-2-yl)-1-piperidyl]-7H-pyrrolo[2,3-d]pyrimidine] gave an IC50 of 0.0001 to 1 µM.
On to `Cc1ccc(-c2cc3c(N4CCC(c5nc(C)c(-c6ccccc6)[nH]5)CC4)ncnc3[nH]2)cn1` [P-3074, 4-[4-(4-methyl-5-phenyl-1H-imidazol-2-yl)-1-piperidyl]-6-(6-methyl-3-pyridyl)-7H-pyrrolo[2,3-d]pyrimidine], for which the IC50 was in the range of 0.0001 to 1 µM.
